In US20240252506A1 (Hoffmann-La Roche Inc., priority 2021, published 2024) one finds MIC data, which are given here for 21 compounds.

Values after ≈ are worked out from the molar mass of the structure shown. A value given as a limit tells only on which side of the number the result lay.

The test system of this assay is Escherichia coli ATCC 25922. The experiment in a line: Minimal Inhibitory Concentration (MIC) determination, broth microdilution (CLSI M07-A10). The assay is classed as cell-based. The conditions noted are these: Escherichia coli, ATCC25922, strain Escherichia coli ATCC 25922, 18-24 hours at 35±2° C., lowest concentration for complete growth inhibition (no visible growth), read-out: Escherichia coli growth inhibition MIC. The method, boiled down:
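MIC read visually as the lowest concentration with complete growth inhibition after 18-24 h at 35±2° C, ambient air. Method follows CLSI M07-A10 broth microdilution, two-fold compound series, inoculum standardized to 0.5 McFarland then diluted 1:200.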
The MIC is the smallest concentration in the dilution series that meets the test's criterion for growth inhibition. Regarding `O=C(O)C(F)(F)F.O=C1COc2ncc(N3CC4(CCN(CC5Cc6c(c(F)c7[nH]c([C@@H]8CCC(=O)N8)nc7c6F)C5)CC4)OC3=O)nc2N1` [Example 21, 6-[8-[[4,8-difluoro-2-[(2S)-5-oxopyrrolidin-2-yl]-3,5,6,7-tetrahydrocyclopenta[f]benzimidazol-6-yl]methyl]-2-oxo-1-oxa-3,8-diazaspiro[4.5]decan-3-yl]-4H-pyrazino[2,3-b][1,4]oxazin-3-one; 2,2,2-trifluoroacetic acid], the minimal inhibitory concentration (MIC) was found to be 1 µg/mL.
Consider `CNCc1nc2cc3c(c(F)c2o1)CC(CN1CCC2(CC1)CN(c1cnc4c(n1)NC(=O)CO4)C(=O)O2)C3.O=C(O)C(F)(F)F` (stereo not drawn) [Example 22, 6-[8-[[8-fluoro-2-(methylaminomethyl)-6,7-dihydro-5H-cyclopenta[f][1,3]benzoxazol-6-yl]methyl]-2-oxo-1-oxa-3,8-diazaspiro[4.5]decan-3-yl]-4H-pyrazino[2,3-b][1,4]oxazin-3-one; 2,2,2-trifluoroacetic acid], for which the MIC amounted to 0.25 µg/mL.
With `O=C1COc2ncc(N3CC4(CCN(CC5Cc6c(c(F)c7c(nc8n7CCNC8)c6F)C5)CC4)OC3=O)nc2N1` (stereo not drawn) [Example 23, 6-[8-[(10,16-difluoro-2,5,8-triazatetracyclo[7.7.0.02,7.011,15]hexadeca-1(9),7,10,15-tetraen-13-yl)methyl]-2-oxo-1-oxa-3,8-diazaspiro[4.5]decan-3-yl]-4H-pyrazino[2,3-b][1,4]oxazin-3-one], the minimal inhibitory concentration (MIC) is 0.5 µg/mL (≈ 0.883 µM).
In the case of `O=C1COc2ncc(N3CC4(CCN(CC5Cc6c(c(F)c7[nH]c([C@H]8CCCN8)nc7c6F)C5)CC4)OC3=O)nc2N1` [Example 24, 6-[8-[[4,8-difluoro-2-[(2R)-pyrrolidin-2-yl]-3,5,6,7-tetrahydrocyclopenta[f]benzimidazol-6-yl]methyl]-2-oxo-1-oxa-3,8-diazaspiro[4.5]decan-3-yl]-4H-pyrazino[2,3-b][1,4]oxazin-3-one], the MIC came out at 0.125 µg/mL (≈ 0.215 µM).
For `C[C@@H](N)c1nc2c(F)c3c(c(F)c2[nH]1)CC(CN1CCC2(CC1)CN(c1cnc4c(n1)NC(=O)CO4)C(=O)O2)C3.O=C(O)C(F)(F)F` [Example 25, 6-[8-[[2-[(1R)-1-aminoethyl]-4,8-difluoro-3,5,6,7-tetrahydrocyclopenta[f]benzimidazol-6-yl]methyl]-2-oxo-1-oxa-3,8-diazaspiro[4.5]decan-3-yl]-4H-pyrazino[2,3-b][1,4]oxazin-3-one; 2,2,2-trifluoroacetic acid], the MIC was no more than 0.06 µg/mL.
`CN[C@H](C)c1nc2c(F)c3c(c(F)c2[nH]1)CC(CNC1CC2(C1)CN(c1cnc4c(n1)NC(=O)CO4)C(=O)O2)C3` (stereo partly drawn) [Example 26, 6-[2-[[4,8-difluoro-2-[(1R)-1-(methylamino)ethyl]-3,5,6,7-tetrahydrocyclopenta[f]benzimidazol-6-yl]methylamino]-6-oxo-5-oxa-7-azaspiro[3.4]octan-7-yl]-4H-pyrazino[2,3-b][1,4]oxazin-3-one]: the MIC amounted to 0.5 µg/mL (≈ 0.902 µM).
With `CN[C@H]1CN[C@H](c2nc3c(F)c4c(c(F)c3[nH]2)CC(CN2CCC3(CC2)CN(c2cnc5c(n2)NC(=O)CO5)C(=O)O3)C4)C1` [Example 27, 6-[8-[[4,8-difluoro-2-[(2S,4R)-4-(methylamino)pyrrolidin-2-yl]-3,5,6,7-tetrahydrocyclopenta[f]benzimidazol-6-yl]methyl]-2-oxo-1-oxa-3,8-diazaspiro[4.5]decan-3-yl]-4H-pyrazino[2,3-b][1,4]oxazin-3-one], the minimum inhibitory concentration (MIC) was 0.25 µg/mL (≈ 0.41 µM).
On to `O=C(O)C(F)(F)F.O=C1COc2ncc(N3CC4(CCN(CC5Cc6c(c(F)c7[nH]c([C@@H]8CC(O)CCN8)nc7c6F)C5)CC4)OC3=O)nc2N1` (stereo partly drawn) [Example 28, 6-[8-[[4,8-difluoro-2-[(2S)-4-hydroxy-2-piperidyl]-3,5,6,7-tetrahydrocyclopenta[f]benzimidazol-6-yl]methyl]-2-oxo-1-oxa-3,8diazaspiro[4.5]decan-3-yl]-4H-pyrazino[2,3-b][1,4]oxazin-3-one; 2,2,2-trifluoroacetic acid], for which the minimum inhibitory concentration (MIC) is 0.25 µg/mL.
The same measure for `CN(C)Cc1nc2c(F)c3c(c(F)c2[nH]1)CC(CNC1CC2(C1)CN(c1cnc4c(n1)NC(=O)CO4)C(=O)O2)C3` (stereo not drawn) [Example 29, 6-[2-[[2-[(dimethylamino)methyl]-4,8-difluoro-3,5,6,7-tetrahydrocyclopenta[f]benzimidazol-6-yl]methylamino]-6-oxo-5-oxa-7-azaspiro[3.4]octan-7-yl]-4H-pyrazino[2,3-b][1,4]oxazin-3-one]: 0.5 µg/mL (≈ 0.902 µM); for `CC(C)(N)c1nc2c(F)c3c(c(F)c2[nH]1)CC(CN1CCC2(CC1)CN(c1cnc4c(n1)NC(=O)CO4)C(=O)O2)C3` [Example 30, 6-[8-[[2-(1-amino-1-methyl-ethyl)-4,8-difluoro-3,5,6,7-tetrahydrocyclopenta[f]benzimidazol-6-yl]methyl]-2-oxo-1-oxa-3,8-diazaspiro[4.5]decan-3-yl]-4H-pyrazino[2,3-b][1,4]oxazin-3-one]: 0.125 µg/mL (≈ 0.22 µM); for `N[C@H]1COC[C@@H]1c1nc2c(F)c3c(c(F)c2[nH]1)CC(CN1CCC2(CC1)CN(c1cnc4c(n1)NC(=O)CO4)C(=O)O2)C3` [Example 31, 6-[8-[[4,8-difluoro-2-[(3S,4R)-4-aminotetrahydrofuran-3-yl]-3,5,6,7-tetrahydrocyclopenta[f]benzimidazol-6-yl]methyl]-2-oxo-1-oxa-3,8-diazaspiro[4.5]decan-3-yl]-4H-pyrazino[2,3-b][1,4]oxazin-3-one]: 0.25 µg/mL (≈ 0.419 µM).
As for `Nc1nc2c(F)c3c(c(F)c2[nH]1)CC(CN1CCC2(CC1)CN(c1cnc4c(n1)NC(=O)CO4)C(=O)O2)C3` [Example 32, 6-[8-[(2-amino-4,8-difluoro-3,5,6,7-tetrahydrocyclopenta[f]benzimidazol-6-yl)methyl]-2-oxo-1-oxa-3,8-diazaspiro[4.5]decan-3-yl]-4H-pyrazino[2,3-b][1,4]oxazin-3-one], the MIC worked out at 0.25 µg/mL (≈ 0.475 µM).
For `CNCc1nc2c(F)c3c(c(F)c2n1C)CC(CN1CCC2(CC1)CN(c1cnc4c(n1)NC(=O)CO4)C(=O)O2)C3` (stereo not drawn) [Example 33, 6-[8-[[4,8-difluoro-1-methyl-2-(methylaminomethyl)-6,7-dihydro-5H-cyclopenta[f]benzimidazol-6-yl]methyl]-2-oxo-1-oxa-3,8-diazaspiro[4.5]decan-3-yl]-4H-pyrazino[2,3-b][1,4]oxazin-3-one], the MIC came out at 0.25 µg/mL (≈ 0.44 µM).
As for `O=C1COc2ncc(N3CC4(CCN(CC5Cc6c(c(F)c7[nH]c(C89CC(CN8)C9)nc7c6F)C5)CC4)OC3=O)nc2N1` [Example 34, 6-[8-[[2-(2-azabicyclo[2.1.1]hexan-1-yl)-4,8-difluoro-3,5,6,7-tetrahydrocyclopenta[f]benzimidazol-6-yl]methyl]-2-oxo-1-oxa-3,8-diazaspiro[4.5]decan-3-yl]-4H-pyrazino[2,3-b][1,4]oxazin-3-one], the figure is 0.25 µg/mL (≈ 0.422 µM); as for `CNCC(=O)Nc1nc2c(F)c3c(c(F)c2[nH]1)CC(CN1CCC2(CC1)CN(c1cnc4c(n1)NC(=O)CO4)C(=O)O2)C3` [Example 35, N-[4,8-difluoro-6-[[2-oxo-3-(3-oxo-4H-pyrazino[2,3-b][1,4]oxazin-6-yl)-1-oxa-3,8-diazaspiro[4.5]decan-8-yl]methyl]-3,5,6,7-tetrahydrocyclopenta[f]benzimidazol-2-yl]-2-(methylamino)acetamide], 0.125 µg/mL (≈ 0.209 µM).
The same measure for `C[C@H](O)[C@@H](N)c1nc2c(F)c3c(c(F)c2[nH]1)CC(CN1CCC2(CC1)CN(c1cnc4c(n1)NC(=O)CO4)C(=O)O2)C3` [Example 36, 6-[8-[[2-[(1S,2S)-1-amino-2-hydroxy-propyl]-4,8-difluoro-3,5,6,7-tetrahydrocyclopenta[f]benzimidazol-6-yl]methyl]-2-oxo-1-oxa-3,8-diazaspiro[4.5]decan-3-yl]-4H-pyrazino[2,3-b][1,4]oxazin-3-one]: 0.5 µg/mL (≈ 0.855 µM).
For `CO[C@@H]1CN[C@@H](c2nc3c(F)c4c(c(F)c3[nH]2)CC(CN2CCC3(CC2)CN(c2cnc5c(n2)NC(=O)CO5)C(=O)O3)C4)C1` [Example 37, 6-[8-[[4,8-difluoro-2-[(2R,4S)-4-methoxypyrrolidin-2-yl]-3,5,6,7-tetrahydrocyclopenta[f]benzimidazol-6-yl]methyl]-2-oxo-1-oxa-3,8-diazaspiro[4.5]decan-3-yl]-4H-pyrazino[2,3-b][1,4]oxazin-3-one], the MIC was determined as 0.25 µg/mL (≈ 0.409 µM).
As for `CN[C@@H](C)c1nc2c(F)c3c(c(F)c2[nH]1)CC(CN1CCC2(CC1)CN(c1cnc4c(n1)NC(=O)CO4)C(=O)O2)C3` [Example 38, 6-[8-[[4,8-difluoro-2-[(1S)-1-(methylamino)ethyl]-3,5,6,7-tetrahydrocyclopenta[f]benzimidazol-6-yl]methyl]-2-oxo-1-oxa-3,8-diazaspiro[4.5]decan-3-yl]-4H-pyrazino[2,3-b][1,4]oxazin-3-one], the figure is 0.125 µg/mL (≈ 0.22 µM); as for `Nc1cnc2c(F)c3c(c(F)c2n1)CC(CN1CCC2(CC1)CN(c1cnc4c(n1)NC(=O)CO4)C(=O)O2)C3` (stereo not drawn) [Example 39, 6-[8-[(3-amino-5,9-difluoro-7,8-dihydro-6H-cyclopenta[g]quinoxalin-7-yl)methyl]-2-oxo-1-oxa-3,8-diazaspiro[4.5]decan-3-yl]-4H-pyrazino[2,3-b][1,4]oxazin-3-one], 0.5 µg/mL (≈ 0.928 µM); as for `CNCCNc1cnc2c(F)c3c(c(F)c2n1)CC(CN1CCC2(CC1)CN(c1cnc4c(n1)NC(=O)CO4)C(=O)O2)C3` (stereo not drawn) [Example 40, 6-[8-[[5,9-difluoro-3-[2-(methylamino)ethylamino]-7,8-dihydro-6H-cyclopenta[g]quinoxalin-7-yl]methyl]-2-oxo-1-oxa-3,8-diazaspiro[4.5]decan-3-yl]-4H-pyrazino[2,3-b][1,4]oxazin-3-one], 0.5 µg/mL (≈ 0.839 µM).
The same measure for `NCCn1nc2c(F)c3c(c(F)c2n1)CC(CN1CCC2(CC1)CN(c1cnc4c(n1)NC(=O)CO4)C(=O)O2)C3` [Example 41, 6-[8-[[2-(2-aminoethyl)-4,8-difluoro-6,7-dihydro-5H-cyclopenta[f]benzotriazol-6-yl]methyl]-2-oxo-1-oxa-3,8-diazaspiro[4.5]decan-3-yl]-4H-pyrazino[2,3-b][1,4]oxazin-3-one]: no more than 0.06 µg/mL.
